Source: patent publication US4122202A, “Amino-3H-isobenzofuranones N-substitutes and their therapeutic application” (Societe Cortial, priority 1975, dated 1978)
Read-outs that look alike come from different tables or passages of the source.

Experiments:
mice = assay: Analgesic activity: protection against abdominal twisting induced by phenylbenzoquinone (PBQ); type: in vivo; conditions: Mus musculus, oral, read-out: AD 50 (the source's name)
Method: All products were administered in gummy julep except No. 1 and No. 13 which were administered in Tween. The analgesic activity were determined in mice by utilizing as a nociceptive agent, phenylbenzoquinone (PBQ) (modification of the method by Siegmund and co-workers Proc. Soc. Exp. Biol. Med. 1957, 95, 729-31). The process consists of seeking a possible protection for the mouse vis-a-vis abdominal twisting and stretching of the hind legs induced by the parental injection of PBQ. 25 minutes after having orally administered the products to be tested in suspension in 2% Tween 80 or in 6% gummy julep, the PBQ solution was injected and the mice were observed after 5 minutes during the following 5 minutes. For certain products, AD 50 is presented as a measure of activity. […]

rats [1] = assay: Anti-inflammatory activity: carragenic test (carragenine-induced edema of the hind leg); type: in vivo, male rats; conditions: Rattus norvegicus, oral, read-out: ED 50
Method: All products were administered in gummy julep except No. 1 and No. 13 which were administered in suspension in Tween. The anti-inflammatory activity was determined by the carragenic test with male rats. Inflammation was induced by the injection of 0.1 ml of a 0.5% suspension of carragenine in a physiological serum into the muscular fasciculus of the metatarsal region of the hind leg of the animal. The substance to be tested was orally administered simultaneously with the carragenine. The edema was measured by phethysmography 1, 2, 3, 4, 5 and 6 hours after the administration of the carragenine.
**50 mg/kg No. 13 which were administered in suspension in Tween.

rats [2] = assay: Ulcerous activity (modified method of Colot); type: in vivo, female EOPS rats; conditions: 83 mg/kg oral daily
Method: Ulcerous activity was determined according to a modification of the method by Colot (Technical notions of general pharmacology, 1972) in the case of femal EOPS rats of approximately 150 g. The animals were left without absolutely any food, while the test products were orally administered on a daily basis in suspension in 2% Tween at a volume of 0.5 ml/100 g. The animals were killed under chloroform and the stomachs were removed. Ulcerous activity was established by means of an index taking into account the degree of ulceration and the percentage of animals effected.
In the table given below, a comparison is shown between the results obtained with niflumic acid and product No. 1.

[3] = Oral toxicity in mice (LDO, LD50); type: in vivo; conditions: mouse, in vivo, gummy julep (No. 1 and 13 in Tween), 2 weeks observation
Method: This toxicity is estimated by the calculation of the lethal dose of 50 (LD 50) which determines the fatal dose of the substance for 50% of the animals tested. This determination was effected in accordance with a modification of the method by Litchfield and Wilcoxon (J. Pharmacol. Exp. Therap. 1949, 96, 99-113).
Swiss mice without specific pathogenic organisms were kept in air conditioned rooms 24 to 48 hours before the start of the tests. They were divided into batches of 5.male. and 5.female.. With the animals unfed for 24 hours, the substances were intragastically administered in suspension in 2% Tween 80 or in 6% gummy julep in a volume equivalent to 0.1 ml per 10 g of the weight of the animal.
They remained under observation for two weeks before being killed and subjected to an autopsy.
All products were administered in gummy julep except No. 1 and No. 13 which were administered in Tween. The analgesic activity were determined in mice by utilizing as a nociceptive agent, phenylbenzoquinone (PBQ) (modification of the method by Siegmund and co-workers Proc. Soc. Exp. Biol. Med. 1957, 95, 729-31). The process consists of seeking a possible protection for the mouse vis-a-vis abdominal twisting and stretching of the hind legs induced by the parental injection of PBQ. 25 minutes after having orally administered the products to be tested in suspension in 2% Tween 80 or in 6% gummy julep, the PBQ solution was injected and the mice were observed after 5 minutes during the following 5 minutes. For certain products, AD 50 is presented as a measure of activity.

## O=C(O)c1cccnc1Nc1cccc(C(F)(F)F)c1 [Niflumic acid]
mice
  ED50: 17 mg/kg
Rats [1]; 2H
  ED50: 34 mg/kg
Rats [1]; 4H
  ED50: 125 mg/kg
Rats [2]; 1 day
  IA: Acute ulceration index: 8
  IC: Ulceration index on the way of cicatrization: 380
  IT: Total index: 388
Rats [2]; 3 days
  IA: Acute ulceration index: 16
  IC: Ulceration index on the way of cicatrization: 206
  IT: Total index: 222
[3]
  LD50 at 336 h: ~350 mg/kg
